Measured values as given in US20230346670A1, “Prebiotic Oral Care Compositions and Methods” (Colgate-Palmolive Company, priority 2020, published 2023).

Experiments:
Format in all cases: cell-based
[1] = test system: P. gingivalis virulence genes; assay: Virulence gene expression in multi-species biofilm (SYBR RT-qPCR); settings: relative to control, 2^-ΔΔCt, n = 3
Description: (§1) Biofilms are grown vertically on Calcium Deficient Hydroxyapatite (CAD-HA) disks (Hitemco Medical, Old Bethpage, USA) using the Amsterdam Active Adhesion model. Biofilms are allowed to establish during 24 h (37° C., 170 rpm) under microaerophilic conditions (6% O2, 7% CO2, 7% H2, 80% N2). After this 24 h, disks are rinsed 3 times a day for 3 minutes (RT, 250 rpm), for 3 consecutive days, by transferring the lid containing the disks to a new 24-well plate containing 2 mL/well of the appropriate substrate solution. As a negative control, PBS (pH 5.7) without substrate supplementation is used.
(§2) The virulence of the substrate-treated multi-species biofilms are evaluated by analyzing the relative expression of 33 genes that are recognized as being related to some form of virulence and from 4 periodontal pathogens.
(§3) Expression of bacterial virulence genes is analyzed through SYBR RT-qPCR and normalized for bacterial housekeeping gene expression. […] These effects are illustrated in Tables 6a and 6b:
(§4) Note, for Tables 6a and 6b, that fold changes in virulence gene expression are determined relative to the control condition through the 2^^-ΔΔCt method and are shown as the geometric mean (C.I.) (n = 3) of the 2^^-ΔΔ ^Ct values. All substrates are dissolved in PBS at a concentration of 1 M (upper part) or 1%(w/v) (lower part). Values between 0 and 1 represent relative downregulation, values >1 represent relative upregulation. […] NADG: N-acetyl-D-glucosamine; C.I.: 95% confidence interval.

[2] = test system: A. actinomycetemcomitans virulence genes; assay: as above
Description: as §1, §2, §3, §4

[3] = test system: P. intermedia virulence genes; assay: as above; settings: for fold change in DnaJ expression, geometric mean (95% C.I.) / fold change in DnaK expression, geometric mean (95% C.I.) / fold change in ECF expression, geometric mean (95% C.I.) / fold change in GroES expression, geometric mean (95% C.I.) / fold change in HtpG expression, geometric mean (95% C.I.) / fold change in KpsD expression, geometric mean (95% C.I.) / fold change in adpc expression, geometric mean (95% C.I.) / fold change in clpB expression, geometric mean (95% C.I.) / fold change in inpA expression, geometric mean (95% C.I.) / fold change in phg expression, geometric mean (95% C.I.): relative to control = 1
Description: as §1, §2, §3
as §4, with “for Table 6d,” for “for Tables 6a and 6b, that”, “determined relatively” for “determined relative”, “the 2^^-ΔΔCt” for “the 2^^-ΔΔ ^Ct”

[4] = test system: human oral keratinocytes (HOK-18A); assay: Inflammatory mediator gene expression in keratinocytes exposed to substrate-treated biofilms (SYBR RT-qPCR); settings: relative to control, n = 3
Description: Cultures of immortalized human oral keratinocytes (HOK-18A) are grown. […] The IL-8 levels in the cellular supernatant are determined as well. RNA is converted to cDNA and relative expression of inflammatory mediator genes is determined as described above with respect to the cellular housekeeping gene β-actin.
In HOKs exposed to substrate-treated (substrate concentrations of […]) multi-species biofilms, there are mostly decreases in inflammatory mediator gene expression as measured via SYBR RT-qPCR, the results of which are detailed in Table 7:
Fold changes in inflammatory mediator gene expression from human oral keratinocytes (HOK-18A) exposed to substrate-treated multi-species biofilms are determined relatively to the control through the 2^^-ΔΔCt method and are shown as the geometric mean (C.I.) (n = 3) of the 2^^-ΔΔCt values. All substrates are dissolved in PBS at a concentration of 1 M (upper part) or 1%(w/v) (lower part). Values between 0 and 1 represent relative downregulation, values >1 represent relative upregulation.

[5] = lower part of Table 6a, substrate 1%(w/v), relative to control = 1
[6] = substrate 1 M, relative to control = 1, 2^-ΔΔCt, n = 3
[7] = lower part of Table 6d, head prints 1 M (lower part 1%(w/v))
[8] = upper part of Table 6d, substrate 1 M, n = 3
[9] = HOK-18A exposed to biofilms treated with substrate 1% (w/v)
[10] = HOK-18A exposed to biofilms treated with substrate 1 M

OC[C@H]1O[C@H](O[C@H]2O[C@H](CO)[C@@H](O)[C@H](O)[C@H]2O)[C@H](O)[C@@H](O)[C@@H]1O [D-trehalose, D-(+)-trehalose]
fold change in fimA expression, geometric mean (95% C.I.) ([1]; substrate 1 % (w/v)): 1.58 (0.86-2.90) fold | fold change in kgp expression, geometric mean (95% C.I.) ([1]; substrate 1 % (w/v)): 3.24 (1.63-6.44)^∗ fold | fold change in partC expression, geometric mean (95% C.I.) ([1]; substrate 1 % (w/v)): 0.71 (0.37-1.35) fold | fold change in rgpA expression, geometric mean (95% C.I.) ([1]; substrate 1 % (w/v)): 1.49 (0.69-3.22) fold | fold change in kgp expression, geometric mean (95% C.I.) ([1]; substrate 1 % (w/v), listed as D-(+)-trehalose): approximately 3.2 fold | fold change in fimA expression, geometric mean (95% C.I.) ([1]; substrate 1 M): 0.13 (0.02-0.96)^∗ fold | fold change in kgp expression, geometric mean (95% C.I.) ([1]; substrate 1 M): <LOD | fold change in partC expression, geometric mean (95% C.I.) ([1]; substrate 1 M): 0.03 (0.00-0.49)^∗ fold | fold change in rgpA expression, geometric mean (95% C.I.) ([1]; substrate 1 M): 0.00 (0.00-0.02)^∗ fold | fold change in aae expression, geometric mean (95% C.I.) [2, 5]: 0.95 (0.33-2.78) fold | fold change in apaH expression, geometric mean (95% C.I.) [2, 5]: 0.64 (0.37-1.10) fold | fold change in cdtB expression, geometric mean (95% C.I.) [2, 5]: 0.67 (0.51-0.89) fold | fold change in emaA expression, geometric mean (95% C.I.) [2, 5]: 0.67 (0.49-0.90) fold | fold change in flp expression, geometric mean (95% C.I.) [2, 5]: 0.48 (0.07-3.50) fold | fold change in ltxA expression, geometric mean (95% C.I.) [2, 5]: 0.08 (0.01-0.73)^∗ fold | fold change in omp29 expression, geometric mean (95% C.I.) [2, 5]: 0.51 (0.19-1.34)^∗ fold | fold change in omp100 expression, geometric mean (95% C.I.) [2, 5]: 0.43 (0.26-0.72)^∗ fold | fold change in orf859 expression, geometric mean (95% C.I.) [2, 5]: 1.04 (0.53-2.03) fold | fold change in pgA expression, geometric mean (95% C.I.) [2, 5]: 0.91 (0.81-1.03) fold | fold change in vapA expression, geometric mean (95% C.I.) [2, 5]: 1.02 (0.87-1.21) fold | fold change in vppA expression, geometric mean (95% C.I.) [2, 5]: 0.48 (0.42-0.55)^∗ fold | fold change in aae expression, geometric mean (95% C.I.) [2, 6]: 0.03 (0.01-0.15)^∗ fold | fold change in apaH expression, geometric mean (95% C.I.) [2, 6]: 0.16 (0.04-0.56)^∗ fold | fold change in cdtB expression, geometric mean (95% C.I.) [2, 6]: 0.08 (0.03-0.21)^∗ fold | fold change in emaA expression, geometric mean (95% C.I.) [2, 6]: 0.11 (0.04-0.32)^∗ fold | fold change in flp expression, geometric mean (95% C.I.) [2, 6]: 0.71 (0.30-1.67) fold | fold change in ltxA expression, geometric mean (95% C.I.) [2, 6]: 0.01 (0.00-0.01)^∗ fold | fold change in omp29 expression, geometric mean (95% C.I.) [2, 6]: 0.74 (0.18-3.00) fold | fold change in omp100 expression, geometric mean (95% C.I.) [2, 6]: 0.09 (0.01-1.11)^∗ fold | fold change in orf859 expression, geometric mean (95% C.I.) [2, 6]: 0.14 (0.02-0.87)^∗ fold | fold change in pgA expression, geometric mean (95% C.I.) [2, 6]: 18.24 (5.89-56.51)^∗ fold | fold change in vapA expression, geometric mean (95% C.I.) [2, 6]: 0.32 (0.08-1.26)^∗ fold | fold change in vppA expression, geometric mean (95% C.I.) [2, 6]: 0.32 (0.01-4.50)^∗ fold | fold change in pgA expression, geometric mean (95% C.I.) ([2]; substrate 1 M, relative to control = 1, 2^-ΔΔCt, n = 3, listed as D-(+)-trehalose): 18.2 fold | fold change in DnaJ expression, geometric mean (95% C.I.) [3, 7]: 0.62 (0.08-4.67) fold | fold change in DnaK expression, geometric mean (95% C.I.) [3, 7]: 0.78 (0.44-1.36) fold | fold change in ECF expression, geometric mean (95% C.I.) [3, 7]: 0.69 (0.53-0.91) fold | fold change in GroES expression, geometric mean (95% C.I.) [3, 7]: 1.22 (0.61-2.45) fold | fold change in HtpG expression, geometric mean (95% C.I.) [3, 7]: 0.69 (0.42-1.12) fold | fold change in KpsD expression, geometric mean (95% C.I.) [3, 7]: 1.26 (0.52-3.08) fold | fold change in adpc expression, geometric mean (95% C.I.) [3, 7]: 0.64 (0.29-1.4) fold | fold change in clpB expression, geometric mean (95% C.I.) [3, 7]: 1.30 (0.44-3.83) fold | fold change in inpA expression, geometric mean (95% C.I.) [3, 7]: 0.56 (0.31-1.01)^∗ fold | fold change in phg expression, geometric mean (95% C.I.) [3, 7]: 0.86 (0.82-0.89) fold | impact on P. intermedia virulence gene expression ([3]; substrate 1% (w/v)): limited impact | downregulation of P. intermedia virulence gene expression ([3]; substrate 1 M): 5 fold | fold change in DnaJ expression, geometric mean (95% C.I.) [3, 8]: 1.81 (1.21-2.71) fold | fold change in DnaK expression, geometric mean (95% C.I.) [3, 8]: 8.82 (6.83-11.38)^∗ fold | fold change in ECF expression, geometric mean (95% C.I.) [3, 8]: 6.97 (1.65-29.40)^∗ fold | fold change in GroES expression, geometric mean (95% C.I.) [3, 8]: 11.52 (2.46-53.90)^∗ fold | fold change in HtpG expression, geometric mean (95% C.I.) [3, 8]: 0.67 (0.43-1.03) fold | fold change in KpsD expression, geometric mean (95% C.I.) [3, 8]: 0.59 (0.47-0.75) fold | fold change in adpc expression, geometric mean (95% C.I.) [3, 8]: 1.45 (0.76-2.77) fold | fold change in clpB expression, geometric mean (95% C.I.) [3, 8]: 1.90 (0.77-4.68) fold | fold change in inpA expression, geometric mean (95% C.I.) [3, 8]: 0.81 (0.41-1.63) fold | fold change in phg expression, geometric mean (95% C.I.) [3, 8]: 0.20 (0.14-0.29)^∗ fold | fold change in IL-1β gene expression, geometric mean (C.I.) [4, 9]: 1.06 (0.55-2.06) fold | fold change in IL-6 gene expression, geometric mean (C.I.) [4, 9]: 1.00 (0.46-2.17) fold | fold change in IL-8 gene expression, geometric mean (C.I.) [4, 9]: 1.32 (0.89-1.94)^∗ fold | fold change in MMP-8 gene expression, geometric mean (C.I.) [4, 9]: 0.66 (0.46-0.93) fold | fold change in TNF-α gene expression, geometric mean (C.I.) [4, 9]: 0.94 (0.54-1.64) fold | fold change in IL-1β gene expression, geometric mean (C.I.) [4, 10]: 0.79 (0.45-1.38) fold | fold change in IL-6 gene expression, geometric mean (C.I.) [4, 10]: 1.27 (0.11-14.86) fold | fold change in IL-8 gene expression, geometric mean (C.I.) [4, 10]: 0.22 (0.15-0.34)^∗ fold | fold change in MMP-8 gene expression, geometric mean (C.I.) [4, 10]: 0.81 (0.68-0.95) fold | fold change in TNF-α gene expression, geometric mean (C.I.) [4, 10]: 0.66 (0.41-1.06)^∗ fold
